Common to all, as to assay: NanoBiT complementation of STING and HERC4 in HEK293T; also co-immunoprecipitation
Holding throughout (type): cell-based

For experiment [1], the target named is T1, STING^141-341-LgBiT : SmBiT-HERC4 (Homo sapiens, UniProt Q5GLZ8+Q86WV6).
T1 construct: gene STING1; STING cytosolic domain with connector helix (141-341), C-terminal LgBiT; full-length HERC4, N-terminal SmBiT; transient in HEK293T
As to conditions: compound-induced STING-HERC4 association; dose-response, 16 h; binding site and direct binary binding not determined.

Experiment [2] has as its target T2, STING^141-341-LgBiT : SmBiT-HERC4 (Homo sapiens, UniProt Q5GLZ8+Q86WV6, Q86WV6:K150R).
T2 construct: gene STING1; STING cytosolic domain with connector helix (141-341), C-terminal LgBiT; full-length HERC4, N-terminal SmBiT; transient in HEK293T
To be noted: compound-induced STING-HERC4 association; dose-response, 16 h; binding site and direct binary binding not determined.

Experiment [3] has as its target T3, STING^155-341-LgBiT : SmBiT-HERC4 (Homo sapiens, UniProt Q5GLZ8+Q86WV6).
T3 construct: gene STING1; full-length HERC4, N-terminal SmBiT; transient in HEK293T
As to conditions: compound-induced STING-HERC4 association; 16 h; binding site and direct binary binding not determined.

T1 sequence (Q86WV6 141-341): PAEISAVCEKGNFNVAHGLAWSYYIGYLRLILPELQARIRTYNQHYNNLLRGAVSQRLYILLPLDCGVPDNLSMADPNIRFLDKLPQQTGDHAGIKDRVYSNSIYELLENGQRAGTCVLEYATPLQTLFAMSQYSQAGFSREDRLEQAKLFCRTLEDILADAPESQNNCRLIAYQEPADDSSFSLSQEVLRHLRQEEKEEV
T1 sequence (Q5GLZ8 whole entry, the tested form may be a part): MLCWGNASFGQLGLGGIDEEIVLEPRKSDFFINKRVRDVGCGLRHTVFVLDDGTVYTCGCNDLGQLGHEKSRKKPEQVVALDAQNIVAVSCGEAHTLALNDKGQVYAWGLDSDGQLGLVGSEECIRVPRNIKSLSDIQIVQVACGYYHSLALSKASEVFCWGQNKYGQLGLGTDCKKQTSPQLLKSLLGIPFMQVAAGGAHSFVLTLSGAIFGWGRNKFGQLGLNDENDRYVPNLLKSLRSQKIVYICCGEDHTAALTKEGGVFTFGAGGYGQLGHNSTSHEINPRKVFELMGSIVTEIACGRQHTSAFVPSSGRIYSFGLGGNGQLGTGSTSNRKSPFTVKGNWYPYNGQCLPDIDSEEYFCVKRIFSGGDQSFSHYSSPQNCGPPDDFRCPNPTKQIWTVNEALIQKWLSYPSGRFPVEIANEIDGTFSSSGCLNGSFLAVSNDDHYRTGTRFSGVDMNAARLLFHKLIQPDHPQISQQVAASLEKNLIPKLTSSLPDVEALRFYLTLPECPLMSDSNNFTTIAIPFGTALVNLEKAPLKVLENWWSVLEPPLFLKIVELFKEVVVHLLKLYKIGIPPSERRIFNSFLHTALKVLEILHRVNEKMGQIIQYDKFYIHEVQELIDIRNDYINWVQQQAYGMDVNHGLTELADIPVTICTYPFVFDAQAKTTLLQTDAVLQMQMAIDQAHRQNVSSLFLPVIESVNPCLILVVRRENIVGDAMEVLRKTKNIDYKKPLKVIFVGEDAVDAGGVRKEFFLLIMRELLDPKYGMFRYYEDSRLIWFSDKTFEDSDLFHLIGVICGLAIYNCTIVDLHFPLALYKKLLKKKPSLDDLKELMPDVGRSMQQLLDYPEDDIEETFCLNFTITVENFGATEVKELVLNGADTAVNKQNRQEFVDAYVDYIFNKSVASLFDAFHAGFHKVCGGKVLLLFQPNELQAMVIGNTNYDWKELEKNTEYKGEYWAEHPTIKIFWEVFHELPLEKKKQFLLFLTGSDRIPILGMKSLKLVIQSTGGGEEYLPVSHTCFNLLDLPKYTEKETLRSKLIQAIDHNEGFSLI
T3 sequence (Q86WV6 155-341): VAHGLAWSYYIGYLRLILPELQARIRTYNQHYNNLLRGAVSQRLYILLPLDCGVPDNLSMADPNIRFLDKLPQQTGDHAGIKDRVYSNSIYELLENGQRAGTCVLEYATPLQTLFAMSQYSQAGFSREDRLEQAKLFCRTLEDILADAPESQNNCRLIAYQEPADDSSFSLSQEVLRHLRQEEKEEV
T3 sequence (Q5GLZ8 whole entry): as the sequence (Q5GLZ8 whole entry, the tested form may be a part) above
T2 sequence (Q86WV6 141-341 K150R): as the sequence (Q86WV6 141-341) above, with K10R counted along it
T2 sequence (Q5GLZ8 whole entry, the tested form may be a part): as the sequence (Q5GLZ8 whole entry, the tested form may be a part) above

In the case of `O=S(=O)(Nc1ccc(-c2cccnc2)c2cccnc12)c1ccc(C(F)(F)F)cc1` [AK59, AK59-51TB], the “NanoBiT complementation of STING and HERC4 in HEK293T; also co-immunoprecipitati” value in experiment [1] is “only AK59, but not the inactive analog QK50, is capable of inducing an interaction”; in experiment [2], “all constructs showed a luminescence signal indicating a direct interaction with HERC4 upon AK59”; in experiment [3] it was “all constructs showed a luminescence signal indicating a direct interaction with HERC4 upon AK59”.

The values above are taken from paper PMC11137104, “Small molecule induced STING degradation facilitated by the HECT ligase HERC4” (Nature Communications, 2024).
